Read-outs that look alike come from different tables or passages of the source.

One may read the IC50 as the concentration at which inhibition is half-maximal.

The target in assay [1] is PTK5 (Homo sapiens, UniProt P42685). The assay can be described thus: IC50 Profiler Express kinase assay. The assay is classed as biochemical.
The subject of assay [2] is human bone marrow progenitor cells. Description: Bone marrow progenitor growth. The following applies: CFU-GM, 240 h. The assay is classed as cell-based.
The target of assay [3] is T1, TAO2 (Homo sapiens, UniProt Q9UL54).
T1 sequence (Q9UL54 1-1235): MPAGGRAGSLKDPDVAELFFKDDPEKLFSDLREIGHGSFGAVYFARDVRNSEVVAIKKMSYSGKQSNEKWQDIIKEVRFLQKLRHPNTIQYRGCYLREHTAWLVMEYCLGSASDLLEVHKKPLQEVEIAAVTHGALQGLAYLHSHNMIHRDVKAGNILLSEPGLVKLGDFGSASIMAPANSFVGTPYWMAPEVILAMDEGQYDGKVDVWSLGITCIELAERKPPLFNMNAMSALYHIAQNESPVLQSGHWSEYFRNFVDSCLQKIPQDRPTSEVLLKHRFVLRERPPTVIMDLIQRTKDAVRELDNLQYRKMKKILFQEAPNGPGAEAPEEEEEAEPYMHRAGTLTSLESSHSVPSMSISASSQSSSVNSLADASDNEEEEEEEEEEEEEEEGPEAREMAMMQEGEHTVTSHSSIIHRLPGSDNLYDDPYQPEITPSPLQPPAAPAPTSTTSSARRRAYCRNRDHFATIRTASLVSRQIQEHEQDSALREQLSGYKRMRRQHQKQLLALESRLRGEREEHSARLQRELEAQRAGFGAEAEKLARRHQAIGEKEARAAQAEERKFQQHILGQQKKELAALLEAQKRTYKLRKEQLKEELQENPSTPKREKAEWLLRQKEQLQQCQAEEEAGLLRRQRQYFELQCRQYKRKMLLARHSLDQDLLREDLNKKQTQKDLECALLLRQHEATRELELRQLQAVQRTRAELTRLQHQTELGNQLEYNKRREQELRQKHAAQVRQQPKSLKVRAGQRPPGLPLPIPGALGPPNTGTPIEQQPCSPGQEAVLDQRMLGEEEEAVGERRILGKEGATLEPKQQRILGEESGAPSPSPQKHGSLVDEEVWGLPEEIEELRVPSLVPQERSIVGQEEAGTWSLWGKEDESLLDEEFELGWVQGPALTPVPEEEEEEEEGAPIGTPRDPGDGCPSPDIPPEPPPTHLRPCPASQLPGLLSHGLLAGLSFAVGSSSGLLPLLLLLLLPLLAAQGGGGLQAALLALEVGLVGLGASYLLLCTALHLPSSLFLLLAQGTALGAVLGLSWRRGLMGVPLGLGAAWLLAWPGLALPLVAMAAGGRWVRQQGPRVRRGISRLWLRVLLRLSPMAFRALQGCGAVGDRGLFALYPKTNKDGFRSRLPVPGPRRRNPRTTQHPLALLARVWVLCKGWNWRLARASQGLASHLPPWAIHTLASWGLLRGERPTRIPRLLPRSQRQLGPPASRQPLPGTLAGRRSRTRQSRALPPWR
Description: IC50 Profiler Express kinase assay. In kind it is biochemical.

Sequence of PTK5 (P42685 whole entry): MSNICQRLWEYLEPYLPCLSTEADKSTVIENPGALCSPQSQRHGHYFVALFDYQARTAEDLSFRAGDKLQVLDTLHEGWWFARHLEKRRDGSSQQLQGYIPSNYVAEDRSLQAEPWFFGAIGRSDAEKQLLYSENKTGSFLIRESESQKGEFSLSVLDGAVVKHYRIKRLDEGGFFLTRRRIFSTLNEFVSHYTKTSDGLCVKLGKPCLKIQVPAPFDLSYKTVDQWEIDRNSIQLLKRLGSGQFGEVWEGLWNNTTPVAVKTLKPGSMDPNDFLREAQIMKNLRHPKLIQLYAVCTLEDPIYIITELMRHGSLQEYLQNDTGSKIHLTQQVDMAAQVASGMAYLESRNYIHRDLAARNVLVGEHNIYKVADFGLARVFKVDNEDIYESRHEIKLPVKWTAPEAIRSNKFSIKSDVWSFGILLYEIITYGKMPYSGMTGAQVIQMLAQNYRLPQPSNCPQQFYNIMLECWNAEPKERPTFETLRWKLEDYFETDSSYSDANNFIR

On to `Cc1ccc(Nc2nccc(N(C)c3ccc4c(C)n(C)nc4c3)n2)cc1S(N)(=O)=O` [Pazopanib], for which the half-maximal inhibitory concentration (IC50) in assay [1] came to 97 nM; in assay [2] (read-out: IC50, GM-CSF–driven CFU-GM formation), 1000 nM; in assay [3], 382 nM.

Take `CCN(CC)CCNC(=O)c1c(C)[nH]c(/C=C2\C(=O)Nc3ccc(F)cc32)c1C` [Sunitinib]: the 50% inhibitory concentration (IC50) in assay [2] (read-out: IC50, CFU-GM formation induced by GM-CSF) is 32.7 nM.

The record behind these values is PMC2768111 (British Journal of Cancer, 2009).
